For this data set, the system named is RAW264.7 macrophages. The experiment in a line: Cell accumulation experiment, transmitted light microscopy of cellular staining pattern. It is filed as cell-based. Conditions: for Inferred uptake: inferred from staining pattern after 72 hour incubation; for Observed cellular staining pattern (Notes): live cells, 72 hour incubation, 5 × 10^−6 M (2.5 × 10^−6 M for I); for Cellular staining relative to clofazimine: live macrophages, 72 h; for Staining in fixed cells: methanol-fixed cells incubated 72 h with compound (control). The procedure: Cell Accumulation Experiments and Transmitted Light Microscopic Examination: […] After a 24 h incubation (37 °C, 5% CO2), cells were incubated with solution of clofazmine or its chemical derivatives (300 μL of 5 × 10^−6 m concentration; measured cell viability ranging from 85% to 97% for all compounds tested at this concentration; Figure 1) in DMEM (no phenol red; plus 1 × 10^−3 M sodium pyruvate and 5% FBS). For Compound “I,” 2.5 × 10^−6 M of compound solution in media was used for the RAW 264.7 macrophages incubation because of lower cell viability at higher concentrations (IC50 = (3.95 ± 0.11) × 10^−6 M). A solution of clofazmine or other chemical derivatives was made by a diluting stock solutions (2.5 × 10^−3 M in DMSO; 10 × 10^−3 M stock in DMSO were stored at −80 °C for further use) into DMEM with 5% FBS. […] The extracellular concentration of each compound in each well was maintained by daily replacement of the compound‐containing media. After 72 h of incubation with clofazmine or its derivatives, compound‐containing media were removed and cells were washed twice with media. Live cells in the chambered glasses were examined under inverted transmitted light microscopy (Nikon Eclipse Ti microscope) with a 40× objective and color camera. As a control experiment, fixed cells were also microscopically examined after incubation with the compounds. Cells were seeded on the chambered cover glasses at the density of 1.5 × 10^4 cells cm^−2 (RAW264.7 macrophages) or 2.5 × 10^4 cells cm^−2 (MDCK epithelial cells). After an overnight incubation (37 °C, 5% CO2), media was removed from the wells and cold methanol (−20 °C) was added to each well. After 30 s, remaining methanol was removed by washing with media with 5% FBS. Fixed cells were incubated (37 °C, 5% CO2) with clofazmine or derivatives (300 μL of 5 × 10^−6 M; 2.5 × 10^−6 M for I) in media with 5% FBS. After 72 h, fixed RAW264.7 or MDCK cells were washed with media and examined using the same transmitted microscopy conditions as the live cells.

In the case of `COc1ccc(Nc2cc3nc4ccccc4n(-c4ccc(OC)cc4)c-3cc2=NC(C)C)cc1` [A], the Inferred uptake result is “Slow” and the “Observed cellular staining pattern (Notes)” value is given as “did not exhibit any intracellular staining pattern”.
In the same order, the values of `CC(C)N=c1cc2n(-c3ccc(C#N)cc3)c3ccccc3nc-2cc1Nc1ccc(C#N)cc1` [B] are “Very slow” and “formed large extracellular crystals. No intracellular staining pattern”.
Take `CC(C)N=c1cc2n(-c3ccc(-c4ccccc4)cc3)c3ccccc3nc-2cc1Nc1ccc(-c2ccccc2)cc1` [C]: the Inferred uptake result is recorded as “Slow” and the “Observed cellular staining pattern (Notes)” value is recorded as “Very faint, brown perinuclear staining pattern observed across all cells”.
In the same order, the values of `CC(C)N=c1cc2n(-c3ccc(C(F)(F)F)cc3)c3ccccc3nc-2cc1Nc1ccc(C(F)(F)F)cc1` [D] are “Very slow” and “No intracellular staining pattern observed. Small percentage of cells with orange crystals”.
Take `CC(C)N=c1cc2n(-c3ccc(F)cc3)c3ccccc3nc-2cc1Nc1ccc(F)cc1` [E]: the Inferred uptake result is “Slow” and the “Observed cellular staining pattern (Notes)” value is on record as “Very faint, brown perinuclear staining pattern observed across all cells”.
Take `COCCN=c1cc2n(-c3ccc(Cl)cc3)c3ccccc3nc-2cc1Nc1ccc(Cl)cc1` [H]: the Inferred uptake result is reported as “Moderate”; the “Observed cellular staining pattern (Notes)” value is listed as “Brown staining associated with vesicles/membranes”; the “Cellular staining relative to clofazimine” value was “comparable in morphology and intensity to those of clofazimine”; the “Staining in fixed cells” value is “Fixed cells also exhibited staining”.
In the case of `CCCCN=c1cc2n(-c3ccc(Cl)cc3)c3ccccc3nc-2cc1Nc1ccc(Cl)cc1` [K], the Inferred uptake entry was “Slow” and the “Observed cellular staining pattern (Notes)” value is given as “Very faint, brown perinuclear staining pattern”.
Take `NC(=O)CCN=c1cc2n(-c3ccc(Cl)cc3)c3ccccc3nc-2cc1Nc1ccc(Cl)cc1` [L]: the Inferred uptake result is “Good”, the “Observed cellular staining pattern (Notes)” value is recorded as “Small brown inclusions present in live cells” and the “Staining in fixed cells” value was “absent in fixed cells”.
Turning to `COc1ccc2[nH]cc(CCN=c3cc4n(-c5ccc(Cl)cc5)c5ccccc5nc-4cc3Nc3ccc(Cl)cc3)c2c1` [M], the Inferred uptake result was “Good”; the “Observed cellular staining pattern (Notes)” value is “Orange-brown or purple inclusions present in live cells”; the “Cellular staining relative to clofazimine” value is “comparable in morphology and intensity to those of clofazimine”; the “Staining in fixed cells” value is on record as “Staining not observed in fixed cells”.
On to `Clc1ccc(Nc2cc3nc4ccccc4n(-c4ccc(Cl)cc4)c-3cc2=NCCN2CCOCC2)cc1` [N], for which the Inferred uptake result is listed as “Moderate”, the “Observed cellular staining pattern (Notes)” value is given as “Faint orange staining pattern associated with perinuclear cytoplasmic vesicles” and the “Staining in fixed cells” value is reported as “Staining not observed in fixed cells”.
The matching figures for `Oc1ccc(CCN=c2cc3n(-c4ccc(Cl)cc4)c4ccccc4nc-3cc2Nc2ccc(Cl)cc2)cc1O` [O]: “Good”, “Most of cells have shown faint orange colored vesicles” and “Staining not observed in fixed cells”.

Values taken from article PMC4569013, “Massive Bioaccumulation and Self‐Assembly of Phenazine Compounds in Live Cells” (Advanced Science, 2015).
